As usually defined, the IC50 is the concentration that inhibits the measured activity by half.

A value given as a limit tells only on which side of the number the result lay.

This passage reports IC50 results from US6977261B2, “Azaisoquinoline derivatives as matrix metalloproteinase inhibitors” (Warner-Lambert Company LLC, priority 2002, dated 2005).

This experiment addresses human MMP-13 catalytic domain (hMMP-13CD) (Homo sapiens, UniProt P45452). Nature of the experiment: Inhibition of MMP-13 catalytic domain (thiopeptolide substrate assay). The class given is biochemical. An excerpt:
The assays measure the amount by which a test compound reduces the hydrolysis of a thiopeptolide substrate catalyzed by a matrix metalloproteinase enzyme. Such assays are described in detail by Ye et al., in Biochemistry, 1992;31(45):11231-11235, which is incorporated herein by reference. One such assay is described below in Biological Method 1.
Some of the particular methods described below use the catalytic domain of the MMP-13 enzyme, namely matrix metalloproteinase-13 catalytic domain (“MMP-13CD”), rather than the corresponding full-length enzyme, MMP-13. It has been shown previously by Ye Qi-Zhuang, Hupe D., and Johnson L. (Current Medicinal Chemistry, 1996;3:407-418) that inhibitor activity against a catalytic domain of an MMP is predictive of the inhibitor activity against the respective full-length MMP enzyme.
Thiopeptolide substrates show virtually no decomposition or hydrolysis at or below neutral pH in the absence of a matrix metalloproteinase enzyme. A typical thiopeptolide substrate commonly utilized for assays is Ac-Pro-Leu-Gly-thioester-Leu-Leu-Gly-OEt. […] The change in absorbance at 405 nm is monitored on a Thermo Max microplate reader (molecular Devices, Menlo Park, Calif.) at room temperature (22° C.). […]
Some representative compounds of Formula I have been evaluated for their ability to inhibit MMP-13. […]

With `O=C(O)c1ccc(Cn2ccc3ccc(C#CCn4ccnn4)cc3c2=O)cc1` [4-[1-oxo-7-(3-[1,2,3]triazol-1-ylprop-1-ynyl)-1H-isoquinolin-2-ylmethyl]benzoic acid], the 50% inhibitory concentration (IC50) was > 50 µM.
